48 molecules from US5935954A, “Compounds with improved multi-drug resistance activity” (Vertex Pharmaceuticals Incorporated, priority 1997, dated 1999) can be followed below.

Chain of FKBP12 (P62942 whole entry, species assumed): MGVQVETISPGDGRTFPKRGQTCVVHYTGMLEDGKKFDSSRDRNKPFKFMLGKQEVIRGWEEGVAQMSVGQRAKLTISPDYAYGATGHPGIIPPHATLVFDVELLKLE

The experiment addresses FKBP12 (Homo sapiens, UniProt P62942). The experiment can be described thus: FKBP12 binding assay (inhibition of rotomase activity). It is filed as biochemical. The following applies: apparent Ki. An excerpt: Preferably, the assay measures inhibition of FKBP12 rotomase activity. Such an assay has also been described by M. W. Harding et al., supra and by J. J. Siekierka et al., supra. In this assay the isomerization of an artificial substrate--N-succinyl-Ala-Ala-Pro-Phe-p-nitroanilide--is followed spectrophotometrically. The assay includes the cis form of the substrate, FKBP12, the inhibitor and chymotrypsin. Chymotrypsin is able to cleave p-nitroanilide from the trans form of the substrate, but not the cis form. Release of p-nitroanilide is measured.
The inhibition of FKBP rotomase activity by the preferred FKBP12 binding compounds present in the compositions of this invention was assayed. In this assay various quantities of FKBP12 binding compound (0nM-10 μM) were added to cis-N-succinyl-Ala-Ala-Pro-Phe-p-nitroanilide in the presence of FKBP12 and chymotrypsin. FKBP12 converts the cis form of the substrate to the trans form. This allows chymotrypsin to cleave p-nitroanilide from the substrate. Release of p-nitroanilide was measured spectrophotometrically. This assay allowed me to measure the change in the first order rate constant of the rotomase activity as a function of FKBP12 binding compound concentration and yielded an estimate of apparent Ki.
With `COC/C=C(\c1cncc([C@@H](CCN2CCOCC2)OC(=O)[C@@H]2CCCCN2C(=O)C(=O)C(C)(C)C(C)C)c1)C(C)C` [Compound 115], the Ki worked out at 0.044 µM.

On to `CCCCc1ccc(C)n1-c1cccc([C@@H](CCN2CCOCC2)OC(=O)[C@@H]2CCCCN2C(=O)C(=O)[C@@H]2C[C@H](C(C)C)CC[C@H]2C)c1` [Compound 126], for which the Ki was determined as 3 µM.

As for `CCOCc1cccc(COCC)c1-c1cncc([C@@H](CCN2CCOCC2)OC(=O)[C@@H]2CCCCN2C(=O)C(=O)C(C)(C)C)c1` [Compound 81], the Ki was 0.189 µM.

With `COc1cc(C(=O)C(=O)N2CCCC[C@H]2C(=O)O[C@H](CCCc2ccccc2)c2cccc(/C(=C\CCc3ccccc3)c3ccc[n+]([O-])c3)c2)cc(OC)c1OC` [Compound 9], the Ki amounted to 0.007 µM.

`CCOCc1cccc(COCC)c1-c1csc([C@H](CCN2CCOCC2)OC(=O)[C@@H]2CCCCN2C(=O)C(=O)C(C)(C)C)c1` [Compound 64]: the Ki was 0.34 µM.

For `CCOc1ccc(OCC)c(-c2cncc([C@@H](CCCc3ccccc3)OC(=O)[C@@H]3CCCCN3C(=O)C(=O)c3cc(OC)c(OC)c(OC)c3)c2)c1` [Compound 10], the Ki came to 0.016 µM.

As for `CCCOc1ccc(OCCC)c(-c2cncc([C@H](CCCc3ccccc3)OC(=O)[C@@H]3CCCCN3C(=O)C(=O)c3cc(OC)c(OC)c(OC)c3)c2)c1` [Compound 23], the Ki came out at 2.5 µM.

With `CCC/C(=C/COC)c1cncc(C(OC(=O)[C@@H]2CCCCN2C(=O)C(=O)[C@@H]2CCCC[C@H]2C)/C(C)=C/C2CCOCC2)c1` (stereo partly drawn) [Compound 131], the Ki came out at 0.09 µM.

As to `C=CCC/C=C(\c1ccc([C@H](CCN2CCOCC2)OC(=O)[C@@H]2CCCCN2C(=O)C(=O)CC(C)C)s1)C1CCOCC1` [Compound 69], the Ki amounted to 0.745 µM.

`CCCc1ccc(CCC)n1-c1cccc([C@@H](CCN2CCOCC2)OC(=O)[C@@H]2CCCCN2C(=O)C(=O)C(C)(C)C(C)C)c1` [Compound 103]: the Ki turned out to be 0.021 µM.

`COc1ccc(C(=O)C(=O)N2CCCC[C@H]2C(=O)O[C@@H](CCCc2ccccc2)c2cncc(-c3ccccc3OC)c2)cc1OC` [Compound 14]: the Ki was 0.012 µM.

Take `CCOCc1cccc(COCC)c1-c1csc([C@@H](CCN2CCOCC2)OC(=O)[C@@H]2CCCCN2C(=O)C(=O)C(C)(C)C)c1` [Compound 63]: the Ki was above 5 µM.

Regarding `CCOCc1cccc(COCC)c1-c1cncc(C(OC(=O)[C@@H]2CCCCN2C(=O)C(=O)C(C)(C)C)/C(C)=C/c2ccncc2)c1` (stereo partly drawn) [Compound 67], the Ki amounted to 0.27 µM.

For the molecule `CCCc1ccc(CCC)n1-c1cccc(C(OC(=O)[C@@H]2CCCCN2C(=O)C(=O)C(C)(C)C(C)C)/C(C)=C/c2ccncc2)c1` (stereo partly drawn) [Compound 109], the Ki was above 10 µM.

Take `COc1ccccc1-c1cncc([C@@H](CCCc2ccccc2)OC(=O)[C@@H]2CCCCN2C(=O)C(=O)c2cc(OC)c(OC)c(OC)c2)c1` [Compound 15]: the Ki came to 0.001 µM.

Turning to `COc1cc(C(=O)C(=O)N2CCCC[C@H]2C(=O)OC(CCCc2ccccc2)c2cccc(C(=CCCc3ccccc3)c3cccnc3)c2)cc(OC)c1OC` (stereo partly drawn) [Compound 3], the Ki worked out at 0.3 µM.

As to `CCC/C=C(/c1ccc(C)cc1)c1cncc([C@H](OC(=O)[C@@H]2CCCCN2C(=O)C(=O)c2ccc(F)cc2)/C(C)=C/[C@H]2CC[C@H](O)CC2)c1` [Compound 39], the Ki turned out to be 0.045 µM.

On to `CCOCc1cccc(COCC)c1-c1ccc([C@@H](CCN2CCOCC2)OC(=O)[C@@H]2CCCCN2C(=O)C(=O)CC(C)C)s1` [Compound 83], for which the Ki came out at 0.315 µM.

For `CCOc1ccc(OCC)c(-c2cccc([C@@H](CCCc3ccccc3)OC(=O)[C@@H]3CCCCN3C(=O)C(=O)c3cc(OC)c(OC)c(OC)c3)c2)c1` [Compound 8], the Ki stood at 1 µM.

For `COCc1cccc(COC)c1-c1cncc([C@H](OC(=O)[C@@H]2CCCCN2C(=O)C(=O)C(C)(C)COC)/C(C)=C/[C@H]2CC[C@H](O)CC2)c1` [Compound 51], the Ki is above 10 µM.

For `CCOCc1cc2ccccc2n1-c1cccc([C@@H](CCN2CCOCC2)OC(=O)[C@@H]2CCCCN2C(=O)C(=O)C(C)(C)C(C)C)c1` [Compound 94], the Ki is 0.016 µM.

`CCC/C(=C/COC)c1cncc([C@H](CCN2CCOCC2)OC(=O)[C@@H]2CCCCN2C(=O)C(=O)C(C)(C)C(C)C)c1` [Compound 114]: the Ki was 0.172 µM.

Take `COc1cc(C(=O)C(=O)N2CCCC[C@H]2C(=O)O[C@@H](/C(C)=C/[C@H]2CC[C@H](O)CC2)c2cncc(-c3c(OC)cccc3OC)c2)cc(OC)c1OC` [Compound 33]: the Ki was determined as 0.012 µM.

Take `CCOCc1cccc(COCC)c1-c1cncc([C@H](CCN2CCOCC2)OC(=O)[C@@H]2CCCCN2C(=O)C(=O)C2(C)CCCCC2)c1` [Compound 80]: the Ki was 0.23 µM.

Turning to `C=CCC/C=C(/c1cccnc1)c1ccc([C@@H](CCN2CCOCC2)OC(=O)[C@@H]2CCCCN2C(=O)C(=O)C2(C)CCCCC2)s1` [Compound 85], the Ki was 0.001 µM.

As for `CCOc1ccccc1-c1cncc([C@@H](CCCc2ccccc2)OC(=O)[C@@H]2CCCCN2C(=O)C(=O)c2ccc(OC)c(OC)c2)c1` [Compound 20], the Ki worked out at 0.0058 µM.

For `CCOCc1cccc(COCC)c1-c1ccc([C@H](CCN2CCOCC2)OC(=O)[C@@H]2CCCCN2C(=O)C(=O)CC(C)C)s1` [Compound 84], the Ki came out at 2 µM.

With `CCC/C=C(\c1cncc([C@@H](CCN2CCOCC2)OC(=O)[C@@H]2CCCCN2C(=O)C(=O)[C@@H]2C[C@H](OCC)CC[C@H]2C)c1)C(C)C` [Compound 130], the Ki is 0.49 µM.

As to `CCCC/C=C(\c1cncc([C@@H](OC(=O)[C@@H]2CCCCN2C(=O)C(=O)C(C)C)/C(C)=C/C2CCN(C)CC2)c1)C1CCCCC1` [Compound 74], the Ki was 0.5 µM.

Consider `C=CCC/C=C(\c1ccc([C@@H](CCN2CCOCC2)OC(=O)[C@@H]2CCCCN2C(=O)C(=O)CC(C)C)s1)C1CCOCC1` [Compound 66], for which the Ki was 0.055 µM.

`CCOCc1cccc(COCC)c1-c1ccc([C@@H](CCN2CCOCC2)OC(=O)[C@@H]2CCCCN2C(=O)C(=O)c2cc(COC)ccc2C)s1` [Compound 102]: the Ki stood at 0.7 µM.

As for `CCOCc1cccc(COCC)c1-c1ccc([C@@H](CCN2CCOCC2)OC(=O)[C@@H]2CCCCN2C(=O)C(=O)C(C)(C)C(C)C)s1` [Compound 93], the Ki stood at 0.044 µM.

As to `COc1cc(C(=O)C(=O)N2CCCC[C@H]2C(=O)O[C@H](CCCc2ccccc2)c2cccc(/C(=C\CCc3ccccc3)c3cccnc3)c2)cc(OC)c1OC` [Compound 6], the Ki was 0.024 µM.

`C=CCC/C=C(/c1cccnc1)c1ccc([C@H](OC(=O)[C@@H]2CCCCN2C(=O)C(=O)C(C)(C)COC)/C(C)=C/C2CCN(C)CC2)s1` [Compound 56]: the Ki is above 5 µM.

As for `CCCC/C=C(/c1cccnc1)c1cccc([C@H](CCN2CCOCC2)OC(=O)[C@@H]2CCCCN2C(=O)C(=O)c2cc(OC)c(OC)c(OC)c2)c1` [Compound 35], the Ki came out at 0.38 µM.

On to `C=CCC/C=C(/c1cccnc1)c1ccc([C@H](OC(=O)[C@@H]2CCCCN2C(=O)C(=O)C(C)(C)C)/C(C)=C/C2CCN(C)CC2)s1` [Compound 53], for which the Ki was 0.07 µM.

As for `CCOc1ccccc1-c1cncc([C@H](CCCc2ccccc2)OC(=O)[C@@H]2CCCCN2C(=O)C(=O)c2cc(OC)c(OC)c(OC)c2)c1` [Compound 19], the Ki was found to be 0.027 µM.

With `CCOCc1cccc(COCC)c1-c1csc(C(CCN2CCOCC2)OC(=O)[C@@H]2CCCCN2C(=O)C(=O)C(C)(C)COC)c1` (stereo partly drawn) [Compound 49], the Ki was above 10 µM.

With `CCC/C=C(/c1cccnc1)c1cccc([C@H](CCCc2ccccc2)OC(=O)[C@@H]2CCCCN2C(=O)C(=O)c2cc(OC)c(OC)c(OC)c2)c1` [Compound 16], the Ki is 3.3 µM.

For `COc1cc(C(=O)C(=O)N2CCCC[C@H]2C(=O)O[C@@H](CCCc2ccccc2)c2cccc(/C(=C\CCc3ccccc3)c3cccnc3)c2)cc(OC)c1OC` [Compound 5], the Ki was found to be 4 µM.

As for `C=CCC/C=C(\c1ccc([C@H](CCN2CCOCC2)OC(=O)[C@@H]2CCCCN2C(=O)C(=O)C2(C)CCCCC2)s1)C1CCOCC1` [Compound 87], the Ki is 0.0023 µM.

For `CCCCc1ccc(C)n1-c1cccc([C@@H](CCN2CCOCC2)OC(=O)[C@@H]2CCCCN2C(=O)C(=O)[C@@H]2CCCC[C@H]2C)c1` [Compound 120], the Ki was found to be 0.08 µM.

Take `COC/C=C(\c1cncc([C@@H](CCN2CCOCC2)OC(=O)[C@@H]2CCCCN2C(=O)C(=O)[C@@H]2CCCC[C@H]2C)c1)C(C)C` [Compound 118]: the Ki is 0.07 µM.

Regarding `COC/C=C(\c1cncc([C@H](OC(=O)[C@@H]2CCCCN2C(=O)C(=O)c2ccco2)/C(C)=C/[C@H]2CC[C@H](O)CC2)c1)C1CCCCC1` [Compound 47], the Ki was 0.084 µM.

For the molecule `CCCc1ccc(CCC)n1-c1cccc([C@H](CCN2CCOCC2)OC(=O)[C@@H]2CCCCN2C(=O)C(=O)C(C)(C)C(C)C)c1` [Compound 104], the Ki was 0.87 µM.

`CCC/C=C(\c1cncc([C@H](OC(=O)[C@@H]2CCCCN2C(=O)C(=O)C(C)(C)C(C)C)/C(C)=C/c2ccncc2)c1)C1CCCCC1` [Compound 98]: the Ki is 0.062 µM.

For the molecule `CCC/C=C(/C)c1cncc([C@@H](CCN2CCOCC2)OC(=O)[C@@H]2CCCCN2C(=O)C(=O)[C@@H]2C[C@H](C(C)(C)OC)CC[C@H]2C)c1` [Compound 133], the Ki came out at 0.315 µM.

Take `CCOc1ccc(OCC)c(-c2cncc([C@@H](CCCc3ccccc3)OC(=O)[C@@H]3CCCCN3C(=O)C(=O)c3ccc(OC)c(OC)c3)c2)c1` [Compound 11]: the Ki stood at 0.007 µM.
